In ChEMBL document CHEMBL4190161 (Medchemcomm, 2016):
The source made the active and inactive calls. The rule behind the calls is not given here. Starred links: 1 amine or outer side, 2 acyl side, 3 side chain; linkers in the order of their positions; H or OH if unused. Residues, ends and D or L forms follow the SMILES beside them. γGlu = O=C(O)[C@H](CCC(=O)[*:2])N[*:1]

Columns and labels:
[1] = Metal chelating activity assessed as compound-Fe2+ complex formation
[2] = Antioxidant activity assessed as DPPH radical scavenging activity incubated for 30 mins under dark condition by spectrophotometric method; format: functional
[3] = Antioxidant activity of the compound in phosphate buffer at pH 7.4 assessed as trolox equivalent of AAPH-induced peroxyl radical scavenging activity at 6 uM pretreated for 2 mins followed by AAPH addition measured at 2 mins interval for 108 minutes by ORAC-FL assay; format: functional
[4] = Antioxidant activity assessed as ABTS radical scavenging activity measured within 12 mins by spectrophotometric method; format: functional
[5] = Antioxidant activity assessed as trolox equivalent of hydroxyl radical scavenging activity up to 25 mg/ml measured after 60 mins by fenton reaction method; format: functional
[6] = Antioxidant activity assessed as DPPH radical scavenging activity measured after 20 mins by spectrophotometric method; format: functional
[7] = Antioxidant activity of the compound in phosphate buffer at pH 6.6 assessed as trolox equivalent of potassium ferric cyanide ion reducing activity at 0.4 mM after 20 mins by spectrophotometric method; format: functional
[8] = Antioxidant activity of the compound in phosphate buffer at pH 7.4 assessed as trolox equivalent of AAPH-induced peroxyl radical scavenging activity measured at 2 mins interval for 80 minutes by ORAC-FL assay; format: functional
[9] = Antioxidant activity assessed as DPPH radical scavenging activity measured after 30 mins by spectrophotometric method; format: functional
[10] = Antioxidant activity of the compound in phosphate buffered saline at pH 7.4 assessed as trolox equivalent of ABTS radical scavenging activity after 6 mins by spectrophotometric method; format: functional

Structure (SMILES)	Activity [1]	IC50 [2] [mM]	Activity (umolequiv/umol) [3]	Activity [5]	Activity (umolequiv/umol) [8]	further results
N[C@@H](Cc1ccc(O)cc1)C(=O)N[C@@H](CCC(=O)O)C(=O)NCC(=O)O (H-Tyr-Glu-Gly-OH)	inactive	78.8	1.2			Activity [4]: Active; Activity (mmolequiv/mmol) [5]: 0.47
CC(C)C[C@H](NC(=O)[C@@H](N)CCCCN)C(=O)N[C@@H](CCC(=O)O)C(=O)O (H-Lys-Leu-Glu-OH)	inactive	348	-0.04	inactive		
N[C@@H](CCC(=O)O)C(=O)N[C@@H](CS)C(=O)N[C@@H](Cc1cnc[nH]1)C(=O)O (H-Glu-Cys-His-OH)	inactive	0.11	0.1	Active		Activity [6]: inactive; Activity (umolequiv/umol) [7]: 61.2; Activity [4]: Active
N[C@@H](Cc1ccc(O)cc1)C(=O)O					1.57	
CC(C)C[C@H](NC(=O)[C@H](CCCCN)NC(=O)[C@@H](N)Cc1ccccc1)C(=O)O (H-Phe-Lys-Leu-OH)	inactive	4.2	-0.06	Active		Activity (umolequiv/umol) [7]: 20.4
O=C(O)CNC(=O)[C@H](CS)NC(=O)[C@@H]1CCCN1 (H-Pro-Cys-Gly-OH)	inactive	0.3	0.2	Active		Activity [9]: inactive; Activity (umolequiv/umol) [7]: 25.2; Activity [10]: Active
CC(C)C[C@H](NC(=O)[C@H](Cc1cnc[nH]1)NC(=O)[C@@H](N)Cc1ccc(O)cc1)C(=O)O	inactive	99.9	0.36	Active		
CC(C)[C@H](NC(=O)[C@@H](N)CCCCN)C(=O)N[C@@H](Cc1cnc[nH]1)C(=O)O (H-Lys-Val-His-OH)	inactive	285	0.03	Active		
N[C@@H](CCC(=O)N[C@@H](CS)C(=O)N[C@@H](Cc1cnc[nH]1)C(=O)O)C(=O)O (γGlu-Cys-His-OH)						Activity [10]: Active
N[C@@H](Cc1ccccc1)C(=O)O					0.0025	
CC(C)C[C@H](N)C(=O)N[C@@H](Cc1cnc[nH]1)C(=O)NCC(=O)O (H-Leu-His-Gly-OH)	inactive	102	-0.48	Active		
CSCC[C@H](N)C(=O)O					1.13	
N[C@@H](CS)C(=O)O					0.149	
N[C@@H](Cc1c[nH]cn1)C(=O)O					0.073	
N[C@@H](CCC(=O)N[C@@H](CS)C(=O)NCC(=O)O)C(=O)O [GLUTATHIONE]	inactive	0.16	0.65			Activity (umolequiv/umol) [7]: 50.7; Activity [4]: Active
CC(C)C[C@H](NC(=O)[C@H](CCC(=O)O)NC(=O)CN)C(=O)O (H-Gly-Glu-Leu-OH)	inactive	521	-0.1	inactive		
